Values of other authors as cited in patent publication US7098239B2, “Dipeptidyl peptidase inhibitors for the treatment of diabetes” (Merck & Co., Inc, priority 2001, dated 2006).
Blank lines part the entries; values can stand above or below the compound they belong to.

Columns and labels:
[1] = test system: cardiac allograft; conditions: rats; survival doubled from day 7 to day 14
[2] = test system: hematopoiesis; conditions: mouse model of cyclophosphamide-induced neutropenia
[3] = biological target: T1, DP-IV (Homo sapiens, UniProt P27487)
T1 construct: GRF is rapidly degraded in plasma to GRF[3–44]
T1 sequence (P27487 39-766 limits assumed): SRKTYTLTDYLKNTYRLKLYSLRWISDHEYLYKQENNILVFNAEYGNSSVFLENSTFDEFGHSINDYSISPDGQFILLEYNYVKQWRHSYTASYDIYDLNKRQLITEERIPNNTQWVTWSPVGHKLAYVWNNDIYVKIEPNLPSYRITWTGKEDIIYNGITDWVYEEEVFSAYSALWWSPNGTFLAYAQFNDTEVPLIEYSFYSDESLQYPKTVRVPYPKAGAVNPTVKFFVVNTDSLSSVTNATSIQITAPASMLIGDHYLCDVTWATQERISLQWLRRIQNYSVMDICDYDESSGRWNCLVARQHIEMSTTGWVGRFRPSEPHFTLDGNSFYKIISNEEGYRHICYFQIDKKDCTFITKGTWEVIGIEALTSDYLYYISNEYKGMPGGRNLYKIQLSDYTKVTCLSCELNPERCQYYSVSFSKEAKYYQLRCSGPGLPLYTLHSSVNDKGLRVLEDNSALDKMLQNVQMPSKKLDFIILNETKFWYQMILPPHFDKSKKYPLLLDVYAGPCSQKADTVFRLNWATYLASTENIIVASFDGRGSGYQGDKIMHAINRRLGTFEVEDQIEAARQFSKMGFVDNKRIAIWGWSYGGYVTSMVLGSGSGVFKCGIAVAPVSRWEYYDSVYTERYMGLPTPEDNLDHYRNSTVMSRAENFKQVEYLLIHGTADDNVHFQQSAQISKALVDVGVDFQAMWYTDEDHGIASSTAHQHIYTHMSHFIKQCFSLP

Compound: CC(C)N1CCC(c2ccccc2)(c2ccccc2)CC1 [Prodipine, Pro-Pro-diphenyl-phosphonate]
cardiac allograft survival [1]: 14 day

Compound: CC(C)[C@H](N)C(=O)N1CCC[C@H]1B(O)O [Val-Boro-Pro]
hematopoiesis [2]: stimulates hematopoiesis

degradation of GRF in plasma to GRF[3-44] [3]: prevented
Compound: diprotin A
